Earlier results in US20070287755A1, “Orally administered compound for preventing neonatal hemorrhages, in a tardy form, caused by a K-vitamin dificiency” (priority 2006, published 2007).

Tests used:
[1] = only if a suitable amount of biliar salts is present; lymphatic ways, proximal small intestine
[2] = human person, after 72 hours
[3] = test system: tardy hemorrhagic disease; conditions: repeated oral doses of 25 micrograms/day, breast-fed newborn babies

| Molecule | absorption through the gastrointestinal tract [1] | presence in blood [2] | prophylaxis of tardy hemorrhagic disease [3] |
| --- | --- | --- | --- |
| CC1=C(C/C=C(\C)CCC[C@H](C)CCC[C@H](C)CCCC(C)C)C(=O)c2ccccc2C1=O [Phytonadion] | nearly fully absorbed |  |  |
| K-vitamin |  | practically absent in blood | efficient for a full prophylaxis |
